Like-named read-outs stand apart in the source and are kept apart here.
What was measured:
[1] = test system: Puccinia recondita; test: Protective activity against Puccinia recondita on wheat (brown rust of wheat) (Puccrt P1); assay type: in vivo
[2] = test system: Botrytis cinerea; test: Activity against gray mold on bell pepper leaves caused by Botrytis cinerea, 1 day protective application (Botrci P1); assay type: in vivo; conditions: untreated 90%
Description: (§1) The active compounds were prepared separately or jointly as a stock solution comprising 25 mg of active compound which was made up to 10 ml using a mixture of acetone and/or DMSO and the emulsifier Uniperol® EL (wetting agent having emulsifying and dispersing action based on ethoxylated alkylphenols) in a volume ratio of solvent/emulsifier of 99:1. The mixture was then made up to 100 ml with water. This stock solution was diluted with the solvent/emulsifier/water mixture described to give the concentration of active compounds stated below. Alternatively, the active compounds were used as a commercial finished formulation and diluted with water to the concentration of active compounds stated.
Activity Against Gray Mold on Bell Pepper Leaves Caused by Botrytis cinerea, 1 Day Protective Application (Botrci P1)
Bell pepper seedlings were, after 2-3 leaves were well developed, sprayed to runoff point with an aqueous suspension having the active compound concentration stated below. The next day, the treated plants were inoculated with a spore suspension of Botrytis cinerea in a 2% strength biomalt solution. The test plants were then placed in a dark climatized chamber at 22 to 24° C. and high atmospheric humidity. After 5 days, the extent of the fungal infection on the leaves could be determined visually in %.

[3] = test system: Leptosphaeria nodorum; test: Activity against the leaf and glume blotch pathogen Leptosphaeria nodorum in the microtiter test (Leptno); assay type: cell-based
[4] = test system: Pyricularia oryzae; assay type: cell-based
[5] = test system: Phakopsora pachyrhizi; test: Curative activity against soybean rust caused by Phakopsora pachyrhizi (Phakpa K1); assay type: in vivo, Phakopsora pachyrhizi on soybean; conditions: curative application, untreated 90%
Description: as §1
Curative Activity Against Soybean Rust Caused by Phakopsora pachyrhizi (Phakpa K1)
Leaves of potted soybean seedlings were inoculated with a spore suspension of soybean rust (Phakopsora pachyrhizi). The pots were then placed in a chamber with high atmospheric humidity (90 to 95%) and at 23 to 27° C. for 24 hours. During this time, the spores germinated and the germ tubes penetrated into the leaf tissue. The infected plants were then sprayed to runoff point with the active compound solution described above at the active compound concentration stated below. After the spray coating had dried on, the test plants were cultivated in a greenhouse at temperatures between 23 and 27° C. and 60 to 80% relative atmospheric humidity for 14 days. The extent of the rust fungus development on the leaves was then determined visually in % infection.

[6] = test system: Septoria tritici; test: Activity against the Septoria leaf spot pathogen Septoria tritici in the microtiter test (Septtr); assay type: cell-based
[7] = test system: Alternaria solani; test: Activity against the early blight pathogen Alternaria solani in the microtiter test (Alteso); assay type: cell-based; conditions: day 7, relative to active compound-free control (100%)
[8] = 31 ppm, microtiter test, comparative experiments
[9] = 31 ppm, microtiter test, day 7, relative to active compound-free control (100%)

Fc1ccc([C@]2(Cn3cnc(S)n3)O[C@H]2c2ccccc2Cl)c(F)c1 (relative stereo) [Example 1, 1-[rel-(2R,3S)-3-(2-chlorophenyl)-2-(2,4-difluorophenyl)oxiranylmethyl]-1H-[1,2,4]triazole-3-thiol]
Infection in % at 600 ppm for Puccrt P1 ([1]; 600 ppm, protective spray 1 day before inoculation, wheat, untreated 90%): 0%
Infection in % at 600 ppm for Botrci P1 [2]: 7%

Fc1ccc([C@@]2(Cn3nc[nH]c3=S)O[C@@H]2c2ccccc2Cl)cc1F (relative stereo) [Example 3, 1-[rel-(2S,3R)-3-(2-chlorophenyl)-2-(3,4-difluorophenyl)oxiran-2-ylmethyl]-1H-1,2,4-triazole-5(4-H)-thione]
Infection in % at 600 ppm for Puccrt P1 ([1]; in vivo): 0%
Growth in % at 31 ppm for Leptno [3]: 60%

Fc1ccc([C@@]2(Cn3nc[nH]c3=S)O[C@@H]2c2ccccc2F)c(F)c1 (relative stereo) [Example 4, 1-[rel-(2S,3R)-2-(2,4-difluorophenyl)-3-(2-fluorophenyl)oxiran-2-ylmethyl]-1H-1,2,4-triazole-5(4H)-thione]
Growth in % at 31 ppm for Pyrior [4, 8]: 7%
Growth in % at 31 ppm for Pyrior [4, 9]: 7%

Fc1ccc([C@@]2(Cn3nc[nH]c3=S)O[C@@H]2c2ccccc2C(F)(F)F)cc1F (relative stereo) [Example 5, 1-[rel-(2S,3R)-2-(3,4-difluorophenyl)-3-(2-(trifluoromethyl)phenyl)oxiran-2-ylmethyl]-1H-1,2,4-triazole-5(4H)-thione]
Infection in % at 300 ppm for Puccrt P1 ([1]; 300 ppm, protective spray 1 day before inoculation, wheat, untreated 90%): 10%

CSc1ncnn1C[C@]1(c2ccc(F)cc2F)O[C@@H]1c1ccccc1F (relative stereo) [Example 8, 1-[rel-(2S,3R)-2-(2,4-difluorophenyl)-3-(2-fluorophenyl)oxiran-2-ylmethyl]-5-(methylthio)-1H-1,2,4-triazole]
Infection in % at 600 ppm for Phakpa K1 [5]: 1%

CSc1ncnn1C[C@]1(c2ccc(F)c(F)c2)O[C@@H]1c1ccccc1C(F)(F)F (relative stereo) [Example 9, 1-[rel-(2S,3R)-2-(3,4-difluorophenyl)-3-(2-(trifluoromethyl)phenyl)oxiran-2-ylmethyl]-5-(methylthio)-1H-1,2,4-triazole]
Infection in % at 600 ppm for Phakpa K1 [5]: 0%

CSc1ncnn1C[C@]1(c2ccc(F)cc2F)O[C@@H]1c1ccccc1Cl (relative stereo) [Example 10, 1-[rel-(2S,3R)-3-(2-chlorophenyl)-2-(2,4-difluorophenyl)oxiran-2-ylmethyl]-5-(methylthio)-1H-1,2,4-triazole]
Infection in % at 600 ppm for Phakpa K1 [5]: 0%

N#CSc1ncnn1C[C@]1(c2ccc(F)cc2F)O[C@@H]1c1ccccc1Cl (relative stereo) [Example 12, 1-[rel-(2S,3R)-3-(2-chlorophenyl)-2-(2,4-difluorophenyl)oxiran-2-ylmethyl]-5-thiocyanato-1H-1,2,4-triazole]
Growth in % at 31 ppm for Septtr [6, 9]: 1%
Growth in % at 31 ppm for Alteso [7]: 43%

CCOP(=S)(OCC)Sc1ncnn1C[C@]1(c2ccc(F)cc2F)O[C@@H]1c1ccccc1Cl (relative stereo) [Example 13, S-1-[rel-(2S,3R)-3-(2-chlorophenyl)-2-(2,4-difluorophenyl)oxiran-2-ylmethyl]-1H-1,2,4-triazol-5-yl O,O-diethyl phosphorodithioate]
Growth in % at 31 ppm for Septtr [6]: 4%

CC(=O)Sc1ncnn1C[C@]1(c2ccc(F)cc2F)O[C@@H]1c1ccccc1Cl (relative stereo) [Example 14, S-{2-[3-(2-chlorophenyl)-2-(2,4-difluorophenyl)oxiranylmethyl]-2H-[1,2,4]triazole-3-yl} rel-(2S,3R)thio acetate]
Infection in % at 600 ppm for Puccrt P1 ([1]; in vivo): 0%
Infection in % at 600 ppm for Botrci P1 [2]: 3%

Fc1ccc([C@@]2(Cn3ncnc3[S-])O[C@@H]2c2ccccc2Cl)c(F)c1.[Na+] (relative stereo) [Example 16, sodium rel-(2S,3R)-2-[3-(2-chlorophenyl)-2-(2,4-difluorophenyl)oxiranylmethyl]-2H-[1,2,4]triazole-3-thiolate]
Growth in % at 31 ppm for Leptno [3, 9]: 4%

Fc1ccc([C@@]2(Cn3nc[nH]c3=S)O[C@@H]2c2ccccc2Cl)cc1Br [WO9638440, p. 7 (2nd compound)]
Growth in % at 31 ppm for Leptno [3, 8]: 100%

Fc1ccc([C@@]2(Cn3ncnc3S)O[C@@H]2c2ccccc2F)cc1 [WO9638440, p. 9 (2nd compound)]
Growth in % at 31 ppm for Pyrior [4, 8]: 30%

COC(=O)Sc1ncnn1CC1(c2ccc(F)cc2F)OC1c1ccccc1Cl (centres unmarked) [WO9742178, p. 55 (4th compound)]
Growth in % at 31 ppm for Pyrior [4, 8]: 94%

S-{2-[3-(2-chlorophenyl)-2-(2,4-difluorophenyl)oxiranylmethyl]-2H-[1,2,4]triazole-3-yl}rel-(2S,3R)thio carbonate [Example 15]
Growth in % at 31 ppm for Pyrior [4]: 64%
